Measurements as given in patent publication US6525001B1, “Substituted pyrimidine and pyridine herbicides” (Mid-American Commercialization Corporation, priority 1997, dated 2003).

Legend:
Type in all cases: in vivo
[1] = system: wheat (Triticum aestivum); test: Test B pre-/postemergence; design: key: 0 is no effect; 10 is complete control
How it was run: (§1)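 Response scores run from 0, meaning no effect, to 10, meaning complete control, assigned by eye relative to controls twelve to sixteen days after spraying. Treatment was both preemergence on planted seed and postemergence on plants at the 1- to 4-leaf stage.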

[2] = system: pigweed (Amaranthus retroflexus); test: Test B pre-/postemergence; design: key: 0 is no effect; 10 is complete control
How it was run: as §1

[3] = system: giant foxtail (Setaria faberii); test: Test B pre-/postemergence; design: key: 0 is no effect; 10 is complete control
How it was run: as §1

[4] = system: blackgrass (Alopecurus myosuroides); test: Test B pre-/postemergence; design: key: 0 is no effect; 10 is complete control; details: for Blackgrass plant response rating: Preemergence
How it was run: as §1

corn (Zea mays) = test: Test B pre-/postemergence; design: key: 0 is no effect; 10 is complete control; details: for Corn plant response rating: Preemergence
How it was run: as §1

rape (Brassica napus) = test: Test B pre-/postemergence; design: key: 0 is no effect; 10 is complete control
How it was run: as §1

[5] = system: crabgrass (Digitaria sanguinalis); test: Test B pre-/postemergence; design: key: 0 is no effect; 10 is complete control; details: for Crabgrass plant response rating: Preemergence
How it was run: as §1

wild oat (Avena fatua) = test: Test B pre-/postemergence; design: key: 0 is no effect; 10 is complete control
How it was run: as §1

soybean (Glycine max) = test: Test B pre-/postemergence; design: key: 0 is no effect; 10 is complete control
How it was run: as §1

[6] = system: broadleaf signalgrass (Brachiaria decumbens); test: Test B pre-/postemergence; design: key: 0 is no effect; 10 is complete control; details: for B. signalgrass plant response rating: Preemergence
How it was run: as §1

[7] = system: velvetleaf (Abutilon theophrasti); test: Test B pre-/postemergence; design: key: 0 is no effect; 10 is complete control
How it was run: as §1

[8] = system: cocklebur (Xanthium strumarium); test: Test B pre-/postemergence; design: key: 0 is no effect; 10 is complete control; details: for Cocklebur plant response rating: Preemergence
How it was run: as §1

[9] = system: purple nutsedge (Cyperus rotundus); test: Test B pre-/postemergence; design: key: 0 is no effect; 10 is complete control
How it was run: as §1

[10] = system: momingglory (Ipomoea hederacea); test: Test B pre-/postemergence; design: key: 0 is no effect; 10 is complete control
How it was run: as §1

[11] = system: bedstraw (Galium aparine); test: Test B pre-/postemergence; design: key: 0 is no effect; 10 is complete control; details: for Bedstraw plant response rating: Preemergence
How it was run: as §1

[12] = system: sugar beet (Beta vulgaris); test: Test B pre-/postemergence; design: key: 0 is no effect; 10 is complete control
How it was run: as §1

[13] = system: duck salad (Heteranthera limosa); test: Test B flood test
How it was run: (§2)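 Each value is a visual injury score relative to controls, with 10 meaning complete control and 0 no effect. Evaluation took place twelve to sixteen days after the 2-leaf-stage plants were treated and kept in the greenhouse.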

[14] = system: bamyardgrass (Echinochloa crus-galli); test: Test B flood test
How it was run: as §2

rice (Oryza sativa) = test: Test B flood test
How it was run: as §2

[15] = system: smallflower flatsedge (Cyperus difformis); test: Test B flood test
How it was run: as §2

[16] = Rate 250 g/ha, Postemergence (so in the source)
[17] = Rate 62 g/ha, Postemergence (flood test)
[18] = Rate 125 g/ha, Postemergence, flood test
[19] = Rate 250 g/ha, Postemergence (flood test species)
[20] = Rate 125 g/ha, Postemergence section (flood test species)

Cc1cnc(-c2ccc(C#N)cc2)nc1Cc1cccc(C(F)(F)F)c1 [Compound 30]
Wheat plant response rating ([1]; Rate 62 g/ha, Postemergence): 1
Wheat plant response rating ([1]; Rate 62 g/ha, Preemergence): 0
Wheat plant response rating ([1]; Rate 125 g/ha, Postemergence): 2
Plant response rating, Wheat ([1]; Rate 125 g/ha, Preemergence): 0
Plant response rating, Wheat ([1]; Rate 250 g/ha, Postemergence): 2
Plant response rating, Wheat [1, 16]: 0
Plant response rating, Redroot pigweed ([2]; Rate 62 g/ha, Postemergence): 7
Redroot pigweed plant response rating ([2]; Rate 62 g/ha, Preemergence): 2
Redroot pigweed plant response rating ([2]; Rate 125 g/ha, Postemergence): 9
Redroot pigweed plant response rating ([2]; Rate 125 g/ha, Preemergence): 7
Plant response rating, Redroot pigweed ([2]; Rate 250 g/ha, Postemergence): 9
Plant response rating, Redroot pigweed [2, 16]: 10
Plant response rating, Giant foxtail ([3]; Rate 62 g/ha, Postemergence): 1
Giant foxtail plant response rating ([3]; Rate 62 g/ha, Preemergence): 1
Giant foxtail plant response rating ([3]; Rate 125 g/ha, Postemergence): 1
Giant foxtail plant response rating ([3]; Rate 125 g/ha, Preemergence): 5
Plant response rating, Giant foxtail ([3]; Rate 250 g/ha, Postemergence): 2
Plant response rating, Giant foxtail [3, 16]: 9
Plant response rating, Blackgrass ([4]; Rate 62 g/ha, Postemergence): 0
Blackgrass plant response rating ([4]; Rate 62 g/ha): 0
Plant response rating, Blackgrass ([4]; Rate 125 g/ha, Postemergence): 1
Blackgrass plant response rating ([4]; Rate 125 g/ha): 2
Plant response rating, Blackgrass ([4]; Rate 250 g/ha, Postemergence): 1
Plant response rating, Blackgrass [4, 16]: 2
Plant response rating, Corn (corn (Zea mays); Rate 62 g/ha, Postemergence): 1
Corn plant response rating (corn (Zea mays); Rate 62 g/ha): 0
Plant response rating, Corn (corn (Zea mays); Rate 125 g/ha, Postemergence): 2
Corn plant response rating (corn (Zea mays); Rate 125 g/ha): 0
Plant response rating, Corn (corn (Zea mays); Rate 250 g/ha, Postemergence): 2
Plant response rating, Corn (corn (Zea mays); [16]): 0
Plant response rating, Rape (rape (Brassica napus); Rate 62 g/ha, Postemergence): 4
Rape plant response rating (rape (Brassica napus); Rate 62 g/ha, Preemergence): 0
Rape plant response rating (rape (Brassica napus); Rate 125 g/ha, Postemergence): 8
Rape plant response rating (rape (Brassica napus); Rate 125 g/ha, Preemergence): 2
Plant response rating, Rape (rape (Brassica napus); Rate 250 g/ha, Postemergence): 10
Plant response rating, Rape (rape (Brassica napus); [16]): 3
Plant response rating, Crabgrass ([5]; Rate 62 g/ha, Postemergence): 1
Crabgrass plant response rating ([5]; Rate 62 g/ha): 1
Plant response rating, Crabgrass ([5]; Rate 125 g/ha, Postemergence): 1
Crabgrass plant response rating ([5]; Rate 125 g/ha): 3
Plant response rating, Crabgrass ([5]; Rate 250 g/ha, Postemergence): 7
Plant response rating, Crabgrass [5, 16]: 8
Wild oats plant response rating (wild oat (Avena fatua); Rate 62 g/ha, Postemergence): 1
Wild oats plant response rating (wild oat (Avena fatua); Rate 62 g/ha, Preemergence): 1
Wild oats plant response rating (wild oat (Avena fatua); Rate 125 g/ha, Postemergence): 2
Plant response rating, Wild oats (wild oat (Avena fatua); Rate 125 g/ha, Preemergence): 1
Plant response rating, Wild oats (wild oat (Avena fatua); Rate 250 g/ha, Postemergence): 2
Plant response rating, Wild oats (wild oat (Avena fatua); [16]): 2
Plant response rating, Soybean (soybean (Glycine max); Rate 62 g/ha, Postemergence): 3
Soybean plant response rating (soybean (Glycine max); Rate 62 g/ha, Preemergence): 0
Soybean plant response rating (soybean (Glycine max); Rate 125 g/ha, Postemergence): 3
Plant response rating, Soybean (soybean (Glycine max); Rate 125 g/ha, Preemergence): 0
Plant response rating, Soybean (soybean (Glycine max); Rate 250 g/ha, Postemergence): 6
Plant response rating, Soybean (soybean (Glycine max); [16]): 0
Plant response rating, B. signalgrass ([6]; Rate 62 g/ha, Postemergence): 1
B. signalgrass plant response rating ([6]; Rate 62 g/ha): 1
Plant response rating, B. signalgrass ([6]; Rate 125 g/ha, Postemergence): 2
B. signalgrass plant response rating ([6]; Rate 125 g/ha): 4
Plant response rating, B. signalgrass ([6]; Rate 250 g/ha, Postemergence): 2
Plant response rating, B. signalgrass ([6]; Rate 250 g/ha, Postemergence as printed in head r139 (second section for compounds 26-50)): 6
Plant response rating, Velvetleaf ([7]; Rate 62 g/ha, Postemergence): 5
Velvetleaf plant response rating ([7]; Rate 62 g/ha, Preemergence): 1
Velvetleaf plant response rating ([7]; Rate 125 g/ha, Postemergence): 6
Plant response rating, Velvetleaf ([7]; Rate 125 g/ha, Preemergence): 2
Plant response rating, Velvetleaf ([7]; Rate 250 g/ha, Postemergence): 8
Plant response rating, Velvetleaf [7, 16]: 6
Plant response rating, Cocklebur ([8]; Rate 62 g/ha, Postemergence): 5
Cocklebur plant response rating ([8]; Rate 62 g/ha): 0
Plant response rating, Cocklebur ([8]; Rate 125 g/ha, Postemergence): 8
Cocklebur plant response rating ([8]; Rate 125 g/ha): 0
Plant response rating, Cocklebur ([8]; Rate 250 g/ha, Postemergence): 8
Plant response rating, Cocklebur [8, 16]: 0
Plant response rating, Nutsedge ([9]; Rate 62 g/ha, Postemergence): 0
Nutsedge plant response rating ([9]; Rate 62 g/ha, Preemergence): 0
Nutsedge plant response rating ([9]; Rate 125 g/ha, Postemergence): 0
Nutsedge plant response rating ([9]; Rate 125 g/ha, Preemergence): 0
Plant response rating, Nutsedge ([9]; Rate 250 g/ha, Postemergence): 2
Plant response rating, Nutsedge [9, 16]: 0
Plant response rating, Morningglory ([10]; Rate 62 g/ha, Postemergence): 2
Morningglory plant response rating ([10]; Rate 62 g/ha, Preemergence): 1
Morningglory plant response rating ([10]; Rate 125 g/ha, Postemergence): 5
Morningglory plant response rating ([10]; Rate 125 g/ha, Preemergence): 1
Plant response rating, Morningglory ([10]; Rate 250 g/ha, Postemergence): 9
Plant response rating, Morningglory [10, 16]: 3
Plant response rating, Bedstraw ([11]; Rate 62 g/ha, Postemergence): 1
Bedstraw plant response rating ([11]; Rate 62 g/ha): 3
Plant response rating, Bedstraw ([11]; Rate 125 g/ha, Postemergence): 6
Bedstraw plant response rating ([11]; Rate 125 g/ha): 10
Plant response rating, Bedstraw ([11]; Rate 250 g/ha, Postemergence): 6
Plant response rating, Bedstraw [11, 16]: 10
Plant response rating, Sugarbeets ([12]; Rate 62 g/ha, Postemergence): 10
Sugarbeets plant response rating ([12]; Rate 62 g/ha, Preemergence): 6
Sugarbeets plant response rating ([12]; Rate 125 g/ha, Postemergence): 10
Plant response rating, Sugarbeets ([12]; Rate 125 g/ha, Preemergence): 9
Plant response rating, Sugarbeets ([12]; Rate 250 g/ha, Postemergence): 10
Plant response rating, Sugarbeets [12, 16]: 10
Plant response rating, Ducksalad [13, 17]: 3
Plant response rating, Ducksalad [13, 18]: 4
Plant response rating, Ducksalad [13, 19]: 5
Plant response rating, Barnyardgrass [14, 17]: 3
Plant response rating, Barnyardgrass [14, 18]: 3
Plant response rating, Barnyardgrass [14, 19]: 4
Plant response rating, Rice (rice (Oryza sativa); [17]): 1
Rice plant response rating (rice (Oryza sativa); [20]): 1
Plant response rating, Rice (rice (Oryza sativa); [19]): 2
Plant response rating, S. Flatsedge [15, 17]: 4
S. Flatsedge plant response rating [15, 20]: 6
Plant response rating, S. Flatsedge [15, 19]: 8
